Holding throughout (assay type): biochemical
Holding throughout (conditions): read-out: Activity of the protein kinase when treated with compound I-1 (% control)

One assay concerns the target ERK8 (Homo sapiens, UniProt Q8TD08). In words: Protein kinase assay ([γ-32P] ATP), ERK8. The procedure:
(§1) In another set of experiments, the activities of the compounds described herein against various protein kinases were determined according to the methods reported in Hastie et al., Nature Protocols, 2006, 1, 968-971.
(§2) Enzyme dilution buffer. This buffer consisted of 50 mM Tris-HCl, pH 7.5, 0.1 mM EGTA, 1 mg ml^−1 bovine serum albumin and 0.1% (vol/vol) 2-mercaptoethanol.
(§3) 10× concentrated assay buffer. An assay buffer of 500 mM Tris-HCl, pH 7.5, 1 mM EGTA, and 100 mM magnesium acetate was used for assay of a wide variety of protein kinases. In some experiments, other cofactors were included (e.g., calcium ions and calmodulin were included for assay of calcium-calmodulindependent protein kinases).
(§4) 1 mM [γ-^32P] ATP. The specific activity of the [γ-^32P] ATP solution was 1×10^5 to 1×10^6 c.p.m. per nmol depending on what was needed to produce an optimal signal/noise ratio. […] To measure the concentration of ATP, a sample of such a stock solution was diluted to 20 μM, and the absorbance of the diluted sample was measured at 259 nm. The absorbance of a 20-μM stock solution of ATP at 259 nm was about 0.31. […] ATP to produce a radioactivity of 1×10^5 to 1×10^6 c.p.m. per nmol. […]
(§5) 13) Measure radioactivity in the samples by Cerenkov counting (e.g., without liquid scintillation fluid) in a liquid scintillation counter using a “^32P program”. […]

For another assay, the target named is HIPK3 (Homo sapiens, UniProt Q9H422). In words: Protein kinase assay ([γ-32P] ATP), HIPK3. The procedure:
as §1, §2, §3, §4, §5

For a further assay, the target named is CHK1 (Homo sapiens, UniProt O14757). In words: Protein kinase assay ([γ-32P] ATP), CHK1. The procedure: as §1, §2, §3, §4, §5
For a further assay, the target named is MELK (Homo sapiens, UniProt Q14680). In words: Protein kinase assay ([γ-32P] ATP), MELK. The protocol:
as §1, §2, §3, §4, §5

Another assay has as its target PRK2 (Homo sapiens, UniProt Q16513). In words: Protein kinase assay ([γ-32P] ATP), PRK2. The protocol:
as §1, §2, §3, §4, §5

Another assay deals with CAMKKb (Homo sapiens, UniProt Q96RR4). In words: Protein kinase assay ([γ-32P] ATP), CAMKKb. The procedure: as §1, §2, §3, §4, §5
The target in a further assay is MINK1 (Homo sapiens, UniProt Q8N4C8). In words: Protein kinase assay ([γ-32P] ATP), MINK1. The protocol:
as §1, §2, §3, §4, §5

For the next assay, the target named is TAK1 (Homo sapiens, UniProt O43318). In words: Protein kinase assay ([γ-32P] ATP), TAK1. The procedure: as §1, §2, §3, §4, §5
A further assay deals with EF2K (Homo sapiens, UniProt O00418). In words: Protein kinase assay ([γ-32P] ATP), EF2K. The protocol:
as §1, §2, §3, §4, §5

The target of a further assay is CK1γ2 (Homo sapiens, UniProt P78368). In words: Protein kinase assay ([γ-32P] ATP), CK1γ2. The procedure: as §1, §2, §3, §4, §5
Where [1] appears, read: 0.1 μM of compound I-1, DMSO control = 100%.
The mark [2] stands for this setting: 1 μM of compound I-1, DMSO control = 100%.

Sequence of CK1γ2 (P78368 whole entry): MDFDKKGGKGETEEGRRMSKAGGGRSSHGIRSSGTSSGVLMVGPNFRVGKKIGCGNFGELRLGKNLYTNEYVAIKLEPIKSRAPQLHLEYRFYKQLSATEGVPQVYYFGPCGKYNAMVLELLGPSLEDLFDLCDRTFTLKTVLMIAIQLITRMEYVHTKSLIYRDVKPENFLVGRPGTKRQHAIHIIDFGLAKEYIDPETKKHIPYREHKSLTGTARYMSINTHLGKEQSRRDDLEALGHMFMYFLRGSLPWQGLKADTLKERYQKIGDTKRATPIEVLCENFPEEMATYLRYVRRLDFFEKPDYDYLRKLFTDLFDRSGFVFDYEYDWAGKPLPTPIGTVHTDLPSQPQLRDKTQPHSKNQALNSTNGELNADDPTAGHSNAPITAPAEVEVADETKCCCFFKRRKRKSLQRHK
Sequence of MELK (Q14680 whole entry): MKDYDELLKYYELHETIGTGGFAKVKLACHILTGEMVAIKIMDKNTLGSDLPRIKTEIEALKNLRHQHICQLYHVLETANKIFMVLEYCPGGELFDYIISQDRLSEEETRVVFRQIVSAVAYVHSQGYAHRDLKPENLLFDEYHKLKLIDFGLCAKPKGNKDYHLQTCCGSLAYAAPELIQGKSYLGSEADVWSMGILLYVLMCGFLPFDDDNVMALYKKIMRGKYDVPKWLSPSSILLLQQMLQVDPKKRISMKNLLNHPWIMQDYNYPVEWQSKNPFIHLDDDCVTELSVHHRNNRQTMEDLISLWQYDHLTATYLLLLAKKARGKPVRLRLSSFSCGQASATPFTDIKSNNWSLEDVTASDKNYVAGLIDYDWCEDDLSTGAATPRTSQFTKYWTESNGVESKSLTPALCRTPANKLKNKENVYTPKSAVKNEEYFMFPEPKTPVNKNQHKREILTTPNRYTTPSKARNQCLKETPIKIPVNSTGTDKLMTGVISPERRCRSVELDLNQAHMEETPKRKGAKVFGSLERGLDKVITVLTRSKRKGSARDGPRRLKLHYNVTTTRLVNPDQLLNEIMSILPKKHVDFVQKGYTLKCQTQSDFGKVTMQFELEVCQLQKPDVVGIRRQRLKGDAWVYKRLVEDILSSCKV
Sequence of MINK1 (Q8N4C8 whole entry): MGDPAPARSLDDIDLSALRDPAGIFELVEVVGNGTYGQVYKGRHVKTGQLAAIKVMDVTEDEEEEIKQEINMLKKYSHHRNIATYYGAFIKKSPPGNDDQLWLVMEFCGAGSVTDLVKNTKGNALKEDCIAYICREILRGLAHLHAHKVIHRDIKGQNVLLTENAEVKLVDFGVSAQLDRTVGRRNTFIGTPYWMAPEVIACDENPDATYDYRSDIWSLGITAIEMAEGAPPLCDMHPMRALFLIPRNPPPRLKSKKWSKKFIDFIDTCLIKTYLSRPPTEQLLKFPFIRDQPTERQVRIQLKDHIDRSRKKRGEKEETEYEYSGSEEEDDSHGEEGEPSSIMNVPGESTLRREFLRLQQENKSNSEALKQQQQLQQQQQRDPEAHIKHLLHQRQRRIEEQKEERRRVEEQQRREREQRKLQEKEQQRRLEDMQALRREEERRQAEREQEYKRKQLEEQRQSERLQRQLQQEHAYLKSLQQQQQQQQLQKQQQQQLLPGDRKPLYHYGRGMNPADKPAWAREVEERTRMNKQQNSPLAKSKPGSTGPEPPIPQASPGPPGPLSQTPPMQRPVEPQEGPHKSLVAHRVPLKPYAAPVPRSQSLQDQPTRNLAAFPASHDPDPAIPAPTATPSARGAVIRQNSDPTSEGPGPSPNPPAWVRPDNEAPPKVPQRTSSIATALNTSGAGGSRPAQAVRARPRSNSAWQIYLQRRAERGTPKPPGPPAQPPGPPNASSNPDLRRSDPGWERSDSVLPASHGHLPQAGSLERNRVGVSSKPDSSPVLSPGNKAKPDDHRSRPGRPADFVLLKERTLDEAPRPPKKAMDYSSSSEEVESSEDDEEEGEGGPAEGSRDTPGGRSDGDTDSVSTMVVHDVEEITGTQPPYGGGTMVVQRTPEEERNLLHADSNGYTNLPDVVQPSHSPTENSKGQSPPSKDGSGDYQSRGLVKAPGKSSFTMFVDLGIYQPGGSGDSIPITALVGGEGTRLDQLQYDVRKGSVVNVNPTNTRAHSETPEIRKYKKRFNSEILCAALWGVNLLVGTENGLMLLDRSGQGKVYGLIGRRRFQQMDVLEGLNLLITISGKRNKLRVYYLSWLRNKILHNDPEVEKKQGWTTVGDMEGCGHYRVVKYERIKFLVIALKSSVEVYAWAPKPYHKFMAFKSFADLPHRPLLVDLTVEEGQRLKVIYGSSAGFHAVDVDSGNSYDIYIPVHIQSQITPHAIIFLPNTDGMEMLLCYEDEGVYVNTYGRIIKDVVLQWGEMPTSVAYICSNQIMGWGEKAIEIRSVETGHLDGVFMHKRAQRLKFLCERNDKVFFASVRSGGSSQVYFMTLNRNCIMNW
Sequence of EF2K (O00418 whole entry): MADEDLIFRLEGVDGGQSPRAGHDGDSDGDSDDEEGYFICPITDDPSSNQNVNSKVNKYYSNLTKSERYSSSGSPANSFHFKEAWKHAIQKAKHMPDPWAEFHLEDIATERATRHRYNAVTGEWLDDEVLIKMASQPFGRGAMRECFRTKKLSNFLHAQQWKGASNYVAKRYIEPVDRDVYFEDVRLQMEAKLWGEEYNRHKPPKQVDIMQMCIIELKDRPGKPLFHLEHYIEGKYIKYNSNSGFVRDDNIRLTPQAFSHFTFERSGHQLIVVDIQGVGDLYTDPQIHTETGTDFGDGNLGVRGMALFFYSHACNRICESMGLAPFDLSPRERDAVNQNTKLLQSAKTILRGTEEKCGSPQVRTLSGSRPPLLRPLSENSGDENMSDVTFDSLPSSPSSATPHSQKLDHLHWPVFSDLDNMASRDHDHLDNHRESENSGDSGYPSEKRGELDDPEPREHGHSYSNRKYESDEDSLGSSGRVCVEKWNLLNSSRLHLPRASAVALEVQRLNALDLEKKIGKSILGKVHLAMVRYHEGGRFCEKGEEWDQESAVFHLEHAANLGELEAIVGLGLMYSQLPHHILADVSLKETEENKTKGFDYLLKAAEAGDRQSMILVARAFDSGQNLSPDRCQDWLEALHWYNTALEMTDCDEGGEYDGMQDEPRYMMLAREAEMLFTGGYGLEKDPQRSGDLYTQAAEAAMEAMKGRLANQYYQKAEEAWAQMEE
Sequence of TAK1 (O43318 1-303 limits assumed): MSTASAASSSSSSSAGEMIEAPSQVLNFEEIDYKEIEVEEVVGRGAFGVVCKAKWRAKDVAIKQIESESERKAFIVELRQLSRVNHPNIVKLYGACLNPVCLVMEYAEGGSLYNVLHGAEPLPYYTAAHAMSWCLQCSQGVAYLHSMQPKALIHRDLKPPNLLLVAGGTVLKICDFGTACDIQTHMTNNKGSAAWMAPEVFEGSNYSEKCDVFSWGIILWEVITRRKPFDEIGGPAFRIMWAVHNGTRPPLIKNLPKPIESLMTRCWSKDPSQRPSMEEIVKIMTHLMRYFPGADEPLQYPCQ
Sequence of CAMKKb (Q96RR4 whole entry): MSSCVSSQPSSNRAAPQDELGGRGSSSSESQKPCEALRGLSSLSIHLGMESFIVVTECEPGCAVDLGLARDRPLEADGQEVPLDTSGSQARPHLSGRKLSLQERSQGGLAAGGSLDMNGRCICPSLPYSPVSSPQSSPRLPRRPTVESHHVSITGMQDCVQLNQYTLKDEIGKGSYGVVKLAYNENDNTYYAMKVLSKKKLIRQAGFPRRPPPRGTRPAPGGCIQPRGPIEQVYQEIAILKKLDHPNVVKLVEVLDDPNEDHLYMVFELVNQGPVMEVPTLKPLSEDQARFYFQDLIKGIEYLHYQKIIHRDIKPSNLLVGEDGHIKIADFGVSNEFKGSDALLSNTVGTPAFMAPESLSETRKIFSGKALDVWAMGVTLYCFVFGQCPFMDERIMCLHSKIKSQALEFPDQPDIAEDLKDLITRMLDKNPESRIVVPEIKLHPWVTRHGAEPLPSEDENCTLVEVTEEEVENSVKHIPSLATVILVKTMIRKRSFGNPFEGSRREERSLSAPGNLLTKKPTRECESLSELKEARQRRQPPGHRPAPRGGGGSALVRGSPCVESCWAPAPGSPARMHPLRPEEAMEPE
Sequence of PRK2 (Q16513 whole entry, species assumed): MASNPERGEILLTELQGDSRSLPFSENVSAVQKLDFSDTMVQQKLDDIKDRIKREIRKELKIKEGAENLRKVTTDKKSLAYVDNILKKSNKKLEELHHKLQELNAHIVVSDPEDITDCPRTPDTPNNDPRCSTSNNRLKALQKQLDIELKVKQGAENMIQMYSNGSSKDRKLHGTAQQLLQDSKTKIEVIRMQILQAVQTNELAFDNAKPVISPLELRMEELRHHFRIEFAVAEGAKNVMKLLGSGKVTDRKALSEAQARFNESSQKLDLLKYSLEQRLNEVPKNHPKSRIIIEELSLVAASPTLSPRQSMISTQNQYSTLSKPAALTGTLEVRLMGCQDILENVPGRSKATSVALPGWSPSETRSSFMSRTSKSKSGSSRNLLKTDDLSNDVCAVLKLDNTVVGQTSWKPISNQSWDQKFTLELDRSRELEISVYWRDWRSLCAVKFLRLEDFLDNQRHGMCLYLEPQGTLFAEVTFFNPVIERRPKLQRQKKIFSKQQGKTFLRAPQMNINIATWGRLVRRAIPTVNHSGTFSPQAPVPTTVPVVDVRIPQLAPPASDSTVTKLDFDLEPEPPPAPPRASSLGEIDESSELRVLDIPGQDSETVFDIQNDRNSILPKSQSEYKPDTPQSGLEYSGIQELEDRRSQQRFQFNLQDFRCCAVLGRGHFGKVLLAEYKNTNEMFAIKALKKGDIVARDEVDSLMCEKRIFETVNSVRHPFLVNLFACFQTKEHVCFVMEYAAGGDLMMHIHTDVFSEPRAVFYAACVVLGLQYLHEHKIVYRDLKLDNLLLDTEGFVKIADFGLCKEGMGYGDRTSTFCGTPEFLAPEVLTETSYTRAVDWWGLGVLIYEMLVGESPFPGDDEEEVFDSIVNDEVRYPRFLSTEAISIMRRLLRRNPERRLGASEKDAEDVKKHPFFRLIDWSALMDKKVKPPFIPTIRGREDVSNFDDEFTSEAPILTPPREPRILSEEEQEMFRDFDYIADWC

As for `Cc1cccc(C)c1NC(=O)N1C/C=C\COc2cccc(c2)Nc2cc1ncn2` [Compound I-1], the remaining activity at 0.1 µM at ERK8 (setting [1]) was 99%; at HIPK3 (setting [1]) it was 89%; at CHK1 (setting [1]), 99%; on MELK (setting [1]), 67%; at PRK2 (setting [1]), 112%; at CAMKKb (setting [1]), 101%. Besides, the remaining activity at 0.1 µM came out at 46% on MINK1 (setting [1]), 105% on TAK1 (setting [1]), 103% at EF2K (setting [1]) and 96% on CK1γ2 (setting [1]). Moreover, the remaining activity at 1 µM was 72% at ERK8 (setting [2]); 81% at HIPK3 (setting [2]); 94% at CHK1 (setting [2]); 49% at MELK (setting [2]); 87% on PRK2 (setting [2]); 88% at CAMKKb (setting [2]). The remaining activity at 1 µM stood at 9% on MINK1 (setting [2]), 81% on TAK1 (setting [2]), 83% on EF2K (setting [2]) and 100% at CK1γ2 (setting [2]).

The record behind these values is patent US10457691B2, “Macrocyclic kinase inhibitors and uses thereof” (Dana-Farber Cancer Institute, Inc., priority 2014, dated 2019).
